± gives the expanded uncertainty stated by the source.
Assay: xn = mol fraction of the nth substance listed
Conditions: Liquid, x1 = 1; for mass density: Vibrating tube method; for viscosity: Concentric cylinders viscometry

CCC(C)O (stereo unspecified) [butan-2-ol] + Cc1ccc(C)c(C)c1
mass density (273.15 K, 100 kPa): 822.3 ± 0.7 kg/m3 | mass density (273.15 K, 1000 kPa): 822.7 ± 0.7 kg/m3 | mass density (273.15 K, 2000 kPa): 823.4 ± 0.7 kg/m3 | mass density (273.15 K, 5000 kPa): 825.4 ± 0.7 kg/m3 | mass density (273.15 K, 10000 kPa): 828.7 ± 0.7 kg/m3 | mass density (273.15 K, 15000 kPa): 831.8 ± 0.7 kg/m3 | mass density (273.15 K, 20000 kPa): 834.7 ± 0.7 kg/m3 | mass density (273.15 K, 30000 kPa): 840.4 ± 0.8 kg/m3 | mass density (273.15 K, 40000 kPa): 845.7 ± 0.8 kg/m3 | mass density (273.15 K, 50000 kPa): 850.7 ± 0.8 kg/m3 | mass density (273.15 K, 60000 kPa): 855.4 ± 0.8 kg/m3 | mass density (273.15 K, 70000 kPa): 859.9 ± 0.8 kg/m3 | mass density (273.15 K, 80000 kPa): 864.3 ± 0.8 kg/m3 | mass density (273.15 K, 90000 kPa): 868.4 ± 0.9 kg/m3 | mass density (273.15 K, 100000 kPa): 872.4 ± 0.9 kg/m3 | mass density (273.15 K, 110000 kPa): 876.3 ± 0.9 kg/m3 | mass density (273.15 K, 120000 kPa): 879.9 ± 0.9 kg/m3 | mass density (273.15 K, 130000 kPa): 883.5 ± 0.9 kg/m3 | mass density (273.15 K, 140000 kPa): 887.2 ± 0.9 kg/m3 | viscosity (293.15 K, 100 kPa): 3.725 ± 0.076 mPa·s | mass density (293.15 K, 100 kPa): 806.3 ± 0.7 kg/m3 | mass density (293.15 K, 1000 kPa): 807 ± 0.7 kg/m3 | mass density (293.15 K, 2000 kPa): 807.8 ± 0.7 kg/m3 | mass density (293.15 K, 5000 kPa): 810 ± 0.7 kg/m3 | mass density (293.15 K, 10000 kPa): 813.6 ± 0.7 kg/m3 | mass density (293.15 K, 15000 kPa): 817 ± 0.7 kg/m3 | mass density (293.15 K, 20000 kPa): 820.2 ± 0.7 kg/m3 | mass density (293.15 K, 30000 kPa): 826.5 ± 0.8 kg/m3 | mass density (293.15 K, 40000 kPa): 832.3 ± 0.8 kg/m3 | mass density (293.15 K, 50000 kPa): 837.7 ± 0.8 kg/m3 | mass density (293.15 K, 60000 kPa): 842.8 ± 0.8 kg/m3 | mass density (293.15 K, 70000 kPa): 847.7 ± 0.8 kg/m3 | mass density (293.15 K, 80000 kPa): 852.3 ± 0.9 kg/m3 | mass density (293.15 K, 90000 kPa): 856.7 ± 0.9 kg/m3 | mass density (293.15 K, 100000 kPa): 860.9 ± 0.9 kg/m3 | mass density (293.15 K, 110000 kPa): 865 ± 0.9 kg/m3 | mass density (293.15 K, 120000 kPa): 868.8 ± 1 kg/m3 | mass density (293.15 K, 130000 kPa): 872.7 ± 1 kg/m3 | mass density (293.15 K, 140000 kPa): 876.3 ± 1 kg/m3 | viscosity (303.15 K, 100 kPa): 2.555 ± 0.053 mPa·s | viscosity (313.15 K, 100 kPa): 1.814 ± 0.038 mPa·s | mass density (313.15 K, 100 kPa): 789.4 ± 0.7 kg/m3 | mass density (313.15 K, 1000 kPa): 790.1 ± 0.7 kg/m3 | mass density (313.15 K, 2000 kPa): 791 ± 0.7 kg/m3 | mass density (313.15 K, 5000 kPa): 793.5 ± 0.7 kg/m3 | mass density (313.15 K, 10000 kPa): 797.5 ± 0.7 kg/m3 | mass density (313.15 K, 15000 kPa): 801.4 ± 0.7 kg/m3 | mass density (313.15 K, 20000 kPa): 805.1 ± 0.7 kg/m3 | mass density (313.15 K, 30000 kPa): 811.9 ± 0.8 kg/m3 | mass density (313.15 K, 40000 kPa): 818.3 ± 0.8 kg/m3 | mass density (313.15 K, 50000 kPa): 824.1 ± 0.8 kg/m3 | mass density (313.15 K, 60000 kPa): 829.6 ± 0.8 kg/m3 | mass density (313.15 K, 70000 kPa): 835 ± 0.9 kg/m3 | mass density (313.15 K, 80000 kPa): 839.9 ± 0.9 kg/m3 | mass density (313.15 K, 90000 kPa): 844.6 ± 0.9 kg/m3 | mass density (313.15 K, 100000 kPa): 849 ± 0.9 kg/m3 | mass density (313.15 K, 110000 kPa): 853.3 ± 1 kg/m3 | mass density (313.15 K, 120000 kPa): 857.5 ± 1 kg/m3 | mass density (313.15 K, 130000 kPa): 861.5 ± 1 kg/m3 | mass density (313.15 K, 140000 kPa): 865.4 ± 1 kg/m3 | viscosity (323.15 K, 100 kPa): 1.331 ± 0.028 mPa·s | viscosity (333.15 K, 100 kPa): 1.007 ± 0.021 mPa·s | mass density (333.15 K, 100 kPa): 770.7 ± 0.7 kg/m3 | mass density (333.15 K, 1000 kPa): 771.6 ± 0.7 kg/m3 | mass density (333.15 K, 2000 kPa): 772.6 ± 0.7 kg/m3 | mass density (333.15 K, 5000 kPa): 775.5 ± 0.7 kg/m3 | mass density (333.15 K, 10000 kPa): 780.1 ± 0.7 kg/m3 | mass density (333.15 K, 15000 kPa): 784.4 ± 0.7 kg/m3 | mass density (333.15 K, 20000 kPa): 788.6 ± 0.7 kg/m3 | mass density (333.15 K, 30000 kPa): 796.2 ± 0.8 kg/m3 | mass density (333.15 K, 40000 kPa): 803.2 ± 0.8 kg/m3 | mass density (333.15 K, 50000 kPa): 809.6 ± 0.8 kg/m3 | mass density (333.15 K, 60000 kPa): 815.7 ± 0.9 kg/m3 | mass density (333.15 K, 70000 kPa): 821.4 ± 0.9 kg/m3 | mass density (333.15 K, 80000 kPa): 826.7 ± 0.9 kg/m3 | mass density (333.15 K, 90000 kPa): 831.8 ± 0.9 kg/m3 | mass density (333.15 K, 100000 kPa): 836.6 ± 1 kg/m3 | mass density (333.15 K, 110000 kPa): 841.2 ± 1 kg/m3 | mass density (333.15 K, 120000 kPa): 845.5 ± 1 kg/m3 | mass density (333.15 K, 130000 kPa): 849.8 ± 1.1 kg/m3 | mass density (333.15 K, 140000 kPa): 853.9 ± 1.1 kg/m3

Source: the NIST ThermoML archive (doi:10.1016/j.jct.2017.03.006)
